Test results taken from the supplement of paper PMC10331698.
± gives the standard deviation of the averaged measurements.

Tests used:
Experiment in all cases: level (log10 ratio to DMSO vehicle control); higher = higher biomarker level / cell amount than vehicle control
[1] = compound: C=CC(=O)OCC(F)(F)C(F)(F)C(F)(F)C(F)(F)C(F)(F)C(F)(F)C(F)(F)C(F)F [1H,1H,9H-Perfluorononyl acrylate]; details: in DMSO
Protocol: (§1)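 BioMAP Diversity Plus panel of 12 human primary cell co-culture systems (3C, 4H, LPS, SAg, BT, BF4T, BE3C, CASM3C, HDF3CGF, KF3CT, MyoF, Mphg). Compounds were added 1 h before stimulation and left for 24 h (MyoF 48 h; BT 72 h for soluble read-outs or 6 d for IgG). Biomarkers were read by ELISA, cytotoxicity by SRB, PBMC viability and proliferation by Alamar Blue. Each well value was divided by the mean of 8 DMSO control wells on the same plate and log10 transformed; duplicate blinded samples were tested at 4 concentrations.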

[2] = compound: OCC(F)(F)C(F)(F)C(F)(F)C(F)(F)C(F)(F)C(F)(F)F [6:1 Fluorotelomer alcohol]; details: in DMSO
Protocol: as §1

Perfluorooctanoic acid = compound: O=C(O)C(F)(F)C(F)(F)C(F)(F)C(F)(F)C(F)(F)C(F)(F)C(F)(F)F [Perfluorooctanoic acid]; details: in DMSO
Protocol: as §1

Tetrafluorosuccinic acid = compound: O=C(O)C(F)(F)C(F)(F)C(=O)O [Tetrafluorosuccinic acid]; details: in DMSO
Protocol: as §1

[3] = compound: O=C(CC(=O)C(F)(F)C(F)(F)C(F)(F)F)c1cccs1 [(Perfluorobutyryl)-2-thenoylmethane]; details: in DMSO
Protocol: as §1

[4] = compound: O=S(=O)(O)CCC(F)(F)C(F)(F)C(F)(F)C(F)(F)F [4:2 Fluorotelomer sulfonic acid]; details: in DMSO
Protocol: as §1

[5] = compound: C=CC(=O)OCC(F)(F)C(F)(F)C(F)(F)C(F)(F)COC(=O)C=C [1H,1H,6H,6H-Perfluorohexane-1,6-diol diacrylate]; details: 6700 nM; in DMSO
Protocol: as §1

Row | Test System | level (log10) ([1]; 6700 nM) | level (log10) ([1]; 20000 nM) | level (log10) ([1]; 60000 nM) | level (log10) ([2]; 6700 nM) | level (log10) ([2]; 20000 nM) | level (log10) ([2]; 60000 nM) | level (log10) (Perfluorooctanoic acid; 6700 nM) | level (log10) (Perfluorooctanoic acid; 20000 nM) | level (log10) (Perfluorooctanoic acid; 60000 nM) | level (log10) (Tetrafluorosuccinic acid; 6700 nM) | level (log10) (Tetrafluorosuccinic acid; 20000 nM) | level (log10) (Tetrafluorosuccinic acid; 60000 nM) | level (log10) ([3]; 6700 nM) | level (log10) ([3]; 20000 nM) | level (log10) ([4]; 6700 nM) | level (log10) ([4]; 20000 nM) | level (log10) ([4]; 60000 nM) | level (log10) [5]
1 | 4H:SRB | -0.008 ± 0.0042 | -0.008 ± 0.0014 | -0.0235 ± 0.0021 | -0.0125 ± 0.005 | -0.006 ± 0.0085 | -0.002 ± 0.014 | -0.013 ± 0.0071 | -0.004 ± 0.023 | -0.038 ± 0.031 | -0.0005 ± 0.023 | 0.001 ± 0.0085 | -0.0185 ± 0.011 | -0.0255 ± 0.00071 | -0.136 ± 0.0021 | -0.0035 ± 0.00071 | -0.0055 ± 0.005 | -0.0035 ± 0.0092 | -0.0075 ± 0.0035
2 | LPS:IL-1alpha | 0.04 ± 0.028 | 0.0435 ± 0.03 | 0.0325 ± 0.053 | -0.038 ± 0.03 | -0.015 ± 0.061 | -0.0105 ± 0.023 | 0.0135 ± 0.0035 | -0.0205 ± 0.043 | -0.007 ± 0.017 | -0.0215 ± 0.021 | -0.0175 ± 0.0092 | -0.0015 ± 0.013 | -0.069 ± 0.034 | 0.109 ± 0.016 | -0.007 ± 0.035 | -0.001 ± 0.03 | 0.0035 ± 0.018 | -0.0065 ± 0.015
3 | BT:B cell Proliferation | -0.034 ± 0.0042 | -0.0415 ± 0.0035 | -0.253 ± 0.15 | -0.007 ± 0.013 | -0.009 ± 0.038 | -0.148 ± 0.1 | 0.0195 ± 0.018 | 0.027 ± 0.021 | 0.097 ± 0.0099 | -0.0055 ± 0.035 | 0.0075 ± 0.019 | 0.0285 ± 0.00071 | -0.0105 ± 0.025 | -0.122 ± 0.036 | 0.0295 ± 0.047 | 0.042 ± 0.034 | 0.0225 ± 0.0078 | -0.188 ± 0.0057
4 | 4H:CCL26/Eotaxin-3 | -0.0045 ± 0.0035 | -0.016 ± 0.031 | -0.052 ± 0.024 | 0.01 ± 0.0085 | 0.012 ± 0.018 | -0.003 ± 0.025 | 0.0215 ± 0.087 | -0.022 ± 0.12 | -0.0255 ± 0.14 | 0.0025 ± 0.049 | -0.037 ± 0.064 | 0.0315 ± 0.018 | -0.041 ± 0.0057 | -0.241 ± 0.016 | -0.084 ± 0.042 | -0.004 ± 0.037 | 0.0225 ± 0.037 | -0.0435 ± 0.005
5 | 4H:CD62P/P-selectin | -0.0135 ± 0.037 | -0.045 ± 0.011 | -0.109 | -0.023 ± 0.038 | -0.0435 ± 0.029 | -0.182 ± 0.079 | -0.005 ± 0.013 | 0.001 ± 0.0014 | 0.05 ± 0.02 | 0.001 ± 0.017 | -0.011 ± 0.0042 | -0.0005 ± 0.015 | -0.0205 ± 0.037 | -0.41 ± 0.032 | -0.045 ± 0.075 | -0.0285 ± 0.059 | 0.005 ± 0.073 | -0.104 ± 0.026
6 | SAg:PBMC Cytotoxicity | -0.015 ± 0.0057 | -0.0795 ± 0.0092 | -0.194 ± 0.1 | -0.014 ± 0.013 | -0.014 ± 0.0099 | -0.0295 ± 0.073 | 0.0195 ± 0.0021 | 0.022 ± 0.0085 | 0.042 ± 0.016 | -0.002 ± 0.048 | 0.0115 ± 0.013 | 0.039 ± 0.013 | -0.0295 ± 0.019 | -0.058 ± 0.03 | 0.0015 ± 0.013 | -0.007 ± 0.031 | 0.02 ± 0.0014 | -0.066 ± 0.038
7 | 3C:SRB | 0.0015 ± 0.0078 | 0.016 ± 0.0042 | -0.014 ± 0.023 | -0.0045 ± 0.0092 | -0.0025 ± 0.012 | -0.21 ± 0.3 | -0.017 ± 0.0042 | 0.0045 ± 0.019 | -0.102 ± 0.044 | -0.0065 ± 0.011 | -0.0135 ± 0.0078 | -0.021 ± 0.017 | -0.0035 ± 0.028 | -0.139 ± 0.021 | -0.0135 ± 0.011 | -0.0145 ± 0.0078 | -0.0255 ± 0.025 | -0.0015 ± 0.028
8 | BF4T:CCL26/Eotaxin-3 | -0.0095 ± 0.061 | -0.066 ± 0.078 | -0.084 ± 0.018 | 0.0385 ± 0.026 | 0.0185 ± 0.022 | 0.0445 ± 0.03 | -0.023 ± 0.023 | -0.073 ± 0.013 | -0.11 ± 0.06 | 0.018 ± 0.04 | -0.02 ± 0.04 | -0.0075 ± 0.015 | -0.181 ± 0.0035 | -0.464 ± 0.018 | -0.002 ± 0.052 | -0.0065 ± 0.029 | 0.056 ± 0.047 | -0.055 ± 0.025
9 | LPS:CCL2/MCP-1 | -0.023 ± 0.021 | -0.007 ± 0.045 | -0.055 ± 0.0085 | -0.0015 ± 0.029 | -0.0045 ± 0.012 | 0.0045 ± 0.029 | -0.0035 ± 0.00071 | 0.013 | 0.0525 ± 0.022 | -0.02 ± 0.0085 | -0.027 ± 0.014 | -0.0095 ± 0.043 | -0.0475 ± 0.0035 | -0.131 ± 0.0057 | 0.0065 ± 0.028 | 0.005 ± 0.0042 | 0.037 ± 0.017 | -0.0285 ± 0.019
10 | SAg:CD38 | -0.0395 ± 0.035 | -0.0245 ± 0.0035 | -0.031 ± 0.011 | -0.0215 ± 0.088 | -0.0085 ± 0.12 | -0.018 ± 0.17 | -0.008 ± 0.0085 | -0.012 ± 0.023 | -0.0405 ± 0.0064 | -0.003 ± 0.027 | 0.001 ± 0.0028 | 0.006 ± 0.027 | -0.08 ± 0.055 | -0.223 ± 0.035 | -0.0135 ± 0.028 | -0.0415 ± 0.019 | -0.0245 ± 0.005 | -0.0305 ± 0.0078
11 | 4H:VEGFR2 | -0.018 ± 0.014 | -0.009 ± 0.057 | 0.0045 ± 0.03 | 0.0035 ± 0.042 | -0.005 ± 0.013 | 0.012 ± 0.023 | 0.019 ± 0.0099 | 0.0055 ± 0.042 | 0.0205 ± 0.033 | -0.032 ± 0.014 | -0.027 | 0.007 ± 0.11 | -0.0915 ± 0.0078 | -0.172 ± 0.064 | -0.103 ± 0.042 | -0.0525 ± 0.071 | 0.025 ± 0.075 | -0.0605 ± 0.00071
12 | BE3C:CXCL9/MIG | 0.008 ± 0.0028 | 0.0055 ± 0.0078 | 0.0035 ± 0.0021 | -0.005 ± 0.013 | -0.002 ± 0.0099 | -0.545 ± 0.4 | -0.0025 ± 0.0035 | -0.0045 ± 0.005 | 0.002 ± 0.018 | 0.005 ± 0.0071 | 0 ± 0.0085 | 0.0075 ± 0.0092 | -0.0095 ± 0.016 | -0.142 ± 0.0028 | -0.003 ± 0.0057 | -0.005 ± 0.0099 | 0.0095 ± 0.012 | -0.0075 ± 0.011
13 | SAg:CXCL8/IL-8 | -0.068 ± 0.0028 | -0.0845 ± 0.026 | -0.0975 ± 0.14 | -0.035 ± 0.048 | -0.0425 ± 0.025 | -0.013 ± 0.069 | 0.015 ± 0.016 | 0.0165 ± 0.028 | 0.0745 ± 0.029 | -0.0345 ± 0.039 | -0.044 ± 0.021 | -0.006 ± 0.064 | -0.169 ± 0.058 | -0.177 ± 0.0085 | -0.048 ± 0.093 | -0.007 ± 0.052 | 0.034 ± 0.042 | -0.102 ± 0.011
14 | BF4T:CD54/ICAM-1 | -0.0365 ± 0.033 | -0.0385 ± 0.049 | -0.0455 ± 0.019 | -0.0065 ± 0.023 | -0.01 ± 0.016 | -0.005 ± 0.018 | -0.0115 ± 0.0064 | -0.0025 ± 0.012 | -0.014 ± 0.028 | -0.0145 ± 0.013 | -0.018 ± 0.0042 | -0.0295 ± 0.0021 | 0.011 ± 0.017 | -0.0745 ± 0.00071 | -0.0085 ± 0.011 | -0.0125 ± 0.0092 | 0.006 ± 0.038 | -0.0575 ± 0.0021
15 | BF4T:MMP-9 | 0.0145 ± 0.019 | 0.0235 ± 0.019 | 0.031 ± 0.0014 | -0.023 ± 0.016 | -0.004 ± 0.011 | 0.014 ± 0.0085 | -0.006 ± 0.0057 | 0.02 ± 0.013 | 0.0215 ± 0.013 | -0.003 ± 0.021 | -0.0075 ± 0.022 | -0.014 ± 0.0085 | -0.0225 ± 0.0021 | -0.146 ± 0.039 | -0.023 ± 0.023 | -0.02 ± 0.0028 | 0.0205 ± 0.033 | 0.0005 ± 0.00071
16 | BE3C:CXCL10/IP-10 | -0.01 ± 0.016 | 0 ± 0.0014 | -0.005 ± 0.0099 | 0.0355 ± 0.005 | 0.028 ± 0.011 | 0.0075 ± 0.025 | -0.021 ± 0.017 | -0.0275 ± 0.013 | -0.118 ± 0.022 | -0.007 ± 0.0028 | -0.009 ± 0.0057 | -0.0125 ± 0.0035 | -0.0615 ± 0.00071 | -0.578 ± 0.018 | -0.0055 ± 0.00071 | -0.006 ± 0.0085 | -0.0035 ± 0.011 | -0.0095 ± 0.0064
